The text below walks through data of US20100190694A1, “Methods for identifying patients who will respond well to cancer treatment” (priority 2009, published 2010).

Assay [1] has as its system thymidylate synthase (TS). Put plainly: TS mRNA by RTQ-PCR in tumor biopsies. It counts as in vivo, human. Conditions: Bel monotherapy, Bel 1000 mg/m^2/day, patients with pre- and post-Bel samples. Here is the method: (§1) DLTs, i.e. grade ¾ non-hematologic toxicities and grade 4 neutropenia or thrombocytopenia, were determined in cycles 1 and 2. Safety was assessed by NCI CTC (v. 3) and efficacy by RECIST criteria. Expression of TS, DPD, and p21 mRNA was measured by RTQ-PCR in PBMC (20 patients at baseline, and pre-dosing, 6 and 24-hours post-dosing, on days 1 and 4 in cycle 1) and in tumor biopsies (8 patients at baseline and once on days 4 or 5 in cycle 1). Results were expressed as gene expression relative to actin (i.e. TS/Actin Relative Gene Expression, DPD/Actin Relative Gene Expression, and p21/Actin Relative Gene Expression).

The subject of another assay is p21. In words: p21 mRNA by RTQ-PCR in tumor biopsies. The note with it: for patients with up-regulation of p21 in tumor tissue: Bel monotherapy, Bel 1000 mg/m^2/day. Format: in vivo, human. The method, then: as §1
In assay [2] the test system is thymidylate synthase (TS). The note with it: HCT116 colon cancer cells, in vitro; cited from earlier work.

Take `O=C(/C=C/c1cccc(S(=O)(=O)Nc2ccccc2)c1)NO` [PXD-101]: the “patients with TS down-regulated in tumor tissue” value in assay [1] (listed as Bel) is 4 of 4; in assay [1] (listed as belinostat) it was “Four of 4”. The “patients with up-regulation of p21 in tumor tissue” value in the assay on p21 (listed as Bel) is recorded as “Three of 4”; in the assay on p21 (listed as belinostat), 3 of the 4. Besides, in the assay with p21 (patient tumor samples, cycle 1 day 4 or 5, Bel 1000 mg/m^2/day, one value per patient, listed as belinostat), the “p21 Change vs baseline” value was “≈”. The “expression of thymidylate synthase (TS)” value in assay [2] is listed as “reduce the expression”.
